{"source": "patent US9745629B2", "about": "“In vitro method for screening for candidate compounds for preventing and/or attenuating ageing of the skin, and/or for hydrating the skin” (CHANEL PARFUMS BEAUTE, priority 2011, dated 2017)", "tested_on": "LARGE protein", "assay": "Stimulation of the expression of LARGE protein in normal human keratinocytes (immunocytochemical staining)", "type": "cell-based", "conditions": "48 hours, visual staining scale from 1 to 5, untreated keratinocytes 2.03, one donor", "method": "The effect of the Resveratrol used in Example 4 on the expression of the LARGE protein was evaluated in cultured keratinocytes. Keratinocytes derived from neonatal foreskin (Invitrogen, CA, USA) were cultivated in 6-well plates containing cover glasses coated with poly-L-ornithine (Sigma, MO) in keratinocyte culture medium with supplement (EpiLife, Invitrogen). After culturing for 24 hours at 37° C., the 40-50% confluent cells were washed with PBS buffer (Invitrogen, CA) and incubated with basal keratinocytes culture medium (EpiLife, Invitrogen) containing the extract to be tested, for 48 hours. The cytotoxicity of the extract was evaluated in human cultured keratinocytes before testing the activity. To quantify the expression of the LARGE protein in a treated sample relative to an untreated sample, immunocytochemical staining (ICC) of cover glasses with cultured keratinocytes was used. Staining was performed in triplicates, with primary goat anti-human LARGE antibodies (Santa Cruz, Calif.) and secondary donkey anti-goat antibodies (Rockland Immunochemicals, PA). The staining was visualized with AEC system (Lab Vision Corporation, CA). The extent of staining was assessed on thirty random images for each experimental condition, and a visual assessment of the staining was made using a scale from 1 to 5, with 1 being the least intense and 5 being the most intense. The significance of the difference between mean values was assessed using unpaired t test.", "note": "Several values for one entry are separate records, joined by “and”; a condition that tells them apart may be missing. Equal values may be shown once.", "data": [{"compound": "Oc1ccc(C=Cc2cc(O)cc(O)c2)cc1", "note": "[Resveratrol]", "values": [{"measurement": "Stimulation of LARGE protein", "setting": "0.0005% (w/w)", "value": "2.7 (±0.88) and 2.70"}, {"measurement": "Stimulation of LARGE protein", "setting": "0.001% (w/w)", "value": "2.67 (±0.55) and 2.67"}, {"measurement": "Stimulation of LARGE protein", "setting": "0.002% (w/w)", "value": "3.8 (±0.93) and 3.80"}]}]}
